# Assay results reported in patent US8410078B2, “Composition and methods to treat cardiac diseases” (University of Connecticut, priority 2006, dated 2013).
# Legend:
# CSQ mice = assay: Chronic mini-pump administration in CSQ mice: lifespan and cardiac hypertrophy; format: in vivo, mouse
# Description: Mice displaying the CSQ model of severe cardiomyopathy and heart failure were bred and maintained by methods known in the art. The CSQ transgenic (TG) mice were originally provided by Dr. Larry Jones (Krannert Institute of Cardiology, Indiana University School of Medicine, Indiana), and developed hypertrophy followed by a lethal heart failure phenotype with death near the age of 3 months. Ventricular myocytes were obtained from 3-month old wild type (WT) and CSQ mice of either sex (26 WT, 47 TG) by an enzymatic dissociation procedure. Briefly, the hearts were rapidly excised from mice that had been anesthetized with pentobarbital and treated with 1000 Units of heparin. The aorta was cannulated and the heart perfused in a Langendorff apparatus with oxygenated (95% O2/5% CO2) Ca^2+-free solution (37° C.) for 5 minutes at a rate of 2.5 ml/min. The solution composition was: 126 mM NaCl, 4.4 mM KCl, 1.0 mM MgCl2, 18 mM NaHCO3, 11 mM Glucose, 4 mM HEPES, and 3 mM BDM (2,3-butanedione monoxime), (pH 7.3 adjusted with NaOH). Thereafter, the perfusing solution was changed to that containing 25 μM CaCl2 and liberase (70 μg/ml, Roche Molecular Biochemicals, Inc.) for 8-10 minutes. Cells were sedimented by gravity for 10-15 minutes and the pellet was resuspended in 200 μM Ca^2+-containing Tyrode's solution (containing 3 mM BDM), allowed to settle for 30 minutes at room temperature, and suspended with Tyrode's solution containing: 135 mM NaCl, 5.4 mM KCl, 1.0 mM CaCl2, 1.0 mM MgCl2, 10 mM HEPES and 10 mM dextrose (pH 7.4 adjusted with NaOH). The experiments were carried out at room temperature (22-23° C.) and were completed within 4-6 hours after myocyte isolation.
# Cardiac myocyte cross-section area was quantified by methods known in the art. […] The images of cross-sectioned cells showing consistently round shapes were captured with Macrofire® PictureFrame (Optronics, Goleta, Calif.) and cross-section area measured with ImageProPlus® (MediaCybernetics, Silver Spring, Md.). Typically, 50 to 100 cross-sectional areas were determined and averaged per heart. […]
# [1] = system: mouse thoracic aorta ring; assay: Vascular reactivity of phenylephrine-preconstricted thoracic aorta rings; details: pre-constricted with phenylephrine, 10^−9 to 10^−5 M
# Protocol: Thoracic aortas were quickly removed from 8 to 10-week wild type (C57 BL6) mice, cut into 3 mm rings. After pre-constriction with phenylephrine (1 μM), increasing concentrations of acetylcholine or MRS2339 were added in a cumulative fashion to achieve a concentration-response curve. The % relaxation was determined as % decrease in ring tension (gram) compared to the tension before the addition of acetylcholine or MRS2339. Data were shown as mean±SEM.
# WT mice = assay: Survival after LAD ligation-induced myocardial infarction in WT mice; format: in vivo, mouse; details: treated from two days post-infarction, up to 60 days post-infarction
# Protocol: Ligation of LAD in anesthetized mice was carried out using procedures similar to those previously described in the art. Adult WT (BL6) or P2X4R Tg mice 12-14 weeks old of either gender were anesthetized with ketamine (100 mg/kg) and xylazine (5 mg/kg) intraperitoneally. Under a dissecting microscope, mice were placed in a supine position on a heated pad to keep body temperature at 37° C. After endotracheal intubation, the cannula was connected to a small rodent ventilator (Hugo Sachs-Harvard Apparatus, Minivent Type 845, Holliston, Mass.) on room air with a stroke volume of 0.3 ml at a rate of 160 per min. A left intercostals thoracotomy was performed and myocardial infarction was produced by ligating the left anterior descending coronary artery with an 8-0 nylon suture within 2 mm below the edge of left atrium near the origin of the artery. The ligation was deemed successful when the left anterior wall turned pale and the ligation was aimed to induce a 30-40% infarct size. Animals were used according to the approved protocols of the Institutional Review Board at University of Connecticut School of Medicine.
# The LAD ligation-mediated ischemic cardiomyopathy was induced in WT mice. (FIG. 26) At two days post-infarction, 15 mice were treated with […] and 19 mice were treated with NS (normal saline as the vehicle control). […]
compound,measurement,setting,value
"Nc1nc(Cl)nc2c1ncn2C1[C@H]2C[C@@]2(COP(=O)(O)O)[C@@H](O)[C@H]1O (stereo partly drawn) [MRS2339, (1′S,2′R,3′S,4′R,5′S)-4-(6-amino-2-chloro-9H-purin-9-yl)-1-[phosphoryloxymethyl]bicyclo[3.1.0]hexane-2,3-diol]",Median lifespan,"CSQ mice; 3 μM solution, about 6 μl per day for 28 days via mini-pump",115 days
same,Cardiac myocyte cross-section area,CSQ mice; chronic mini-pump treatment,281±15 μm^2
same,Heart weight/body weight ratio,CSQ mice; chronic mini-pump treatment,10.5±1.38
same,Relaxation of aorta ring segments,[1],did not induce relaxation
same,Post-infarction survival,WT mice,greater than 95%
